System: pERK1/2(THR202/TYR204) level in AsPC-1 cell line
Assay: KRAS G12D pERK assay
Assay type: cell-based
Settings: AsPC-1 cells, 2 h compound treatment, HTRF
Experimental: AsPC-1 cell line was used in this study. Cells were maintained in RPMI-1640 supplemented with 10% fetal bovine serum (Thermo Fisher), 50 units/mL penicillin and streptomycin (Thermo Fisher) and kept at 37° C. in a humidified atmosphere of 5% CO2 in air. Cells were reinstated from frozen stocks that were laid down within 30 passages from the original cells purchased. 30000 cells per well were seeded into a 96-well plate and incubated overnight. Cells were treated with a 10-point dilution series. The final compound concentration is from 0 to 10 μM. After 2 h compound treatment, cells were lysed, and the pERK1/2(THR202/TYR204) level in the cell lysates was detected by HTRF kit (Cisbio). In brief, a total of 16 μL of cell lysate from each well of a 96-well plate was transferred to a 384-well white assay plate. Lysate from each well was incubated with 2 μL of Eu3+-cryptate (donor) labeled anti-phospho-ERK1/2 and 2 μL of D2 (acceptor) labeled anti-phospho-ERK1/2 antibodies (Cisbio) overnight in dark at room temperature. When donor and acceptor are in close proximity, excitation of the donor with laser triggers a Fluorescence Resonance Energy Transfer (FRET) towards the acceptor, which in turn fluoresces at 655 nm wavelength. FRET signals were measured using a PHERAstar FSX reader (BMG Labtech). IC50 determination was performed by fitting the curve of percent inhibition versus the log of the inhibitor concentration using Dotmatics.

Row | SMILES | IC50 (Homo sapiens, ASPC1, 2 h) [nM] | IC50 [nM]
1 | CN1C(=O)OC2CC1(COc1nc3c4c(nc(-c5cc(N)cc(Cl)c5C(F)(F)F)c(F)c4n1)OCC[C@@H]1[C@@H]4CC[C@H](CN31)N4)C2 [Example 46, 5-((((6aR,7S,10R)-2-(5-amino-3-chloro-2-(trifluoromethyl)phenyl)-1-fluoro-5,6,6a,7,8,9,10,11-octahydro-4-oxa-3,11a,12,14,15-pentaaza-7,10-methanocyclohepta[4,5]cyclo-octa[1,2,3-de]naphthalen-13-yl)oxy)methyl)-4-methyl-2-oxa-4-azabicyclo[3.1.1]heptan-3-one] | 4860 | 
2 | Cc1cc(N)cc(-c2nc3c4c(nc(OCC56CCC(C)(C5)OC6)nc4c2F)N2C[C@H]4CC[C@H](N4)[C@H]2CCO3)c1C(F)(F)F [Example 51, 3-((6aR,7S,10R)-1-fluoro-13-((1-methyl-2-oxabicyclo[2.2.1]heptan-4-yl)methoxy)-5,6,6a,7,8,9,10,11-octahydro-4-oxa-3,11a,12,14,15-pentaaza-7,10-methanocyclohepta[4,5]cyclo-octa[1,2,3-de]naphthalen-2-yl)-5-methyl-4-(trifluoromethyl)aniline] | 272 | 
3 | Nc1cc(Cl)c(C(F)(F)F)c(-c2nc3c4c(nc(OC[C@@]56CCCN5C[C@H](F)C6)nc4c2F)N2C[C@H]4CC[C@H](N4)[C@H]2CO3)c1 [Example 17, 3-chloro-5-((5aS,6S,9R)-1-fluoro-12-(((2R,7aS)-2-fluorotetrahydro-1H-pyrrolizin-7a(5H)-yl)methoxy)-5a,6,7,8,9,10-hexahydro-5H-4-oxa-3,10a,11,13,14-pentaaza-6,9-methanonaphtho[1,8-ab]heptalen-2-yl)-4-(trifluoromethyl)aniline] | 11 | 
4 | COCC1(COc2nc3c4c(nc(-c5cc(N)cc(Cl)c5C(F)(F)F)c(F)c4n2)OCC[C@@H]2[C@@H]4CC[C@H](CN32)N4)COC1 [Example 62, 3-chloro-5-((6aR,7S,10R)-1-fluoro-13-((3-(methoxymethyl)oxetan-3-yl)methoxy)-5,6,6a,7,8,9,10,11-octahydro-4-oxa-3,11a,12,14,15-pentaaza-7,10-methanocyclohepta[4,5]cyclo-octa[1,2,3-de]naphthalen-2-yl)-4-(trifluoromethyl)aniline] | 346 | 
5 | CN1C(=O)OC2(C)CC1(COc1nc3c4c(nc(-c5cc(N)cc(Cl)c5C(F)(F)F)c(F)c4n1)OCC[C@@H]1[C@@H]4CC[C@H](CN31)N4)C2 [Example 47, 5-((((6aR,7S,10R)-2-(5-amino-3-chloro-2-(trifluoromethyl)phenyl)-1-fluoro-5,6,6a,7,8,9,10,11-octahydro-4-oxa-3,11a,12,14,15-pentaaza-7,10-methanocyclohepta[4,5]cyclo-octa[1,2,3-de]naphthalen-13-yl)oxy)methyl)-1,4-dimethyl-2-oxa-4-azabicyclo[3.1.1]heptan-3-one] | 1930 | 
6 | Nc1cc(Cl)c(C(F)(F)F)c(-c2nc3c4c(nc(OCC56COC(CF)(C5)C6)nc4c2F)N2C[C@H]4CC[C@H](N4)[C@H]2CCO3)c1 [Example 50, 3-chloro-5-((6aR,7S,10R)-1-fluoro-13-((1-(fluoromethyl)-2-oxabicyclo[2.1.1]hexan-4-yl)methoxy)-5,6,6a,7,8,9,10,11-octahydro-4-oxa-3,11a,12,14,15-pentaaza-7,10-methanocyclohepta[4,5]cyclo-octa[1,2,3-de]naphthalen-2-yl)-4-(trifluoromethyl)aniline] | 109 | 
7 | Nc1cc(Cl)c(C(F)(F)F)c(-c2nc3c4c(nc(OC[C@@]56CCCN5C[C@H](F)C6)nc4c2F)N2C[C@H]4CC[C@H](N4)C2CCO3)c1 (single isomer, unassigned) [Example 25] |  | 504
8 | CC12COCC(COc3nc4c5c(nc(-c6cc(N)cc(Cl)c6C(F)(F)F)c(F)c5n3)OCC[C@@H]3[C@@H]5CC[C@H](CN43)N5)(C1)C2 [Example 48, 3-chloro-5-((6aR,7S,10R)-1-fluoro-13-((5-methyl-3-oxabicyclo[3.1.1]heptan-1-yl)methoxy)-5,6,6a,7,8,9,10,11-octahydro-4-oxa-3,11a,12,14,15-pentaaza-7,10-methanocyclohepta[4,5]cyclo-octa[1,2,3-de]naphthalen-2-yl)-4-(trifluoromethyl)aniline] | 296 | 

— patent US20250262222A1, “HETEROCYCLIC COMPOUNDS, COMPOSITIONS THEREOF, AND METHODS OF TREATMENT THEREWITH” (BeiGene Switzerland GmbH, priority 2022, published 2025)
